Test results from patent US12151999B2, “Small molecule compounds having naphthylamine structure and application thereof” (Hangzhou PhecdaMed Co., Ltd., priority 2021, dated 2024).

How the values were obtained:
[1] = In vitro plasma stability test; format: in vitro ADME; settings: 37° C.
Experimental: Procaine was selected as the reference compound. The specific method is as follows:
Incubated in a water bath at 37° C. for 0, 5, 15 and 30 minutes and 1, 2, 4, 6, 10, 24 and 48 hours. Take 200 μL and add 3 times the volume of chromatography grade acetonitrile to precipitate the protein. Vortex shaking for 5 minutes, centrifuge, take 200 μL of the supernatant, HPLC injection and analysis. The liquid phase conditions are the same as before.

[2] = tested on: HEK293Tmtkeima cells; test: Functional test of mitophagy inducer (mtKeima imaging, with or without CCCP-induced mitochondrial damage); format: cell-based, Human; settings: for Ability to selectively induce autophagy in damaged mitochondria (FIG. 2): 5 uM or 10 uM CCCP versus no CCCP treatment; for The ability of selection to induce autophagy in damaged mitochondria: HEK293Tmtkeima cells, 5 uM or 10 uM CCCP to induce mitochondrial damage, number of cells in which damaged mitophagy occurs/number of all cells
Experimental: Group 1: Human embryonic kidney transformed cells HEK293Tmtkeima cells were treated with 0 μM, 1.25 μM, 2.5 μM, 5 μM and 10 μM CCCP respectively, and seeded in a 96-well black ELISA PLATE at 1.5*10^5 cells/ml, 100 μL per well. Compound I-2 was added after 25 hours, and 3 replicates were set. At 37° C., under 5% CO2 incubation conditions, photographs were taken every few hours with biotek cytation 5 for a total of 20 hours, with the bright field as the focusing channel, and 9 images were taken per hole, and the images were processed using the instrument software.
Group 2: Human embryonic kidney transformed cells HEK293Tmtkeima cells were seeded in a 96-well black ELISA PLATE at […], 100 μL per well; compounds I-1˜I-44 and UMI-77 were added after 25 hours, set up 3 replicates; under 37° C., 5% CO2 culture conditions, use biotek every few hours Cytation 5 was used to take photos, a total of 20 hours of shooting. In another group of cells under the same conditions, human embryonic kidney-transformed cells HEK293Tmtkeima cells were seeded in a 96-well black enzyme plate at 1.5*10^5 cells/ml, 100 μl per well; after 24 hours, 5 uM or 10 uM CCCP (Carbonyl cyanide) was first added 3-chlorophenylhydrazone) to induce mitochondrial damage, then add I-1˜I-44, UMI-77 1 hour later, set up 3 repetitions; under 37° C., 5% CO2 culture conditions, pictures were taken every few hours with biotek cytation 5, photographs were taken for 20 hours. Another group of human embryonic kidney transformed cells HEK293Tmtkeima cells was seeded at 1.5*10^5 cells/ml in 96-well black ELISA PLATE at 100 μl per well under the same conditions, 24 hours later 5 uM or 10 uM CCCP (Carbonyl cyanide 3-chlorophenylhydrazone) was first added to induce mitochondrial damage, after 1 hour then add I-1 to I-44, UMI-77 and set up 3 replicates. At 37° C., under 5% CO2 incubation conditions, pictures were taken every few hours with biotek cytation 5, photographs were taken for 20 hours, with the bright field as the focusing channel for both groups, and 9 images were taken per hole, and the images were processed using the instrument software.

[3] = In vitro liver microsome stability test; format: in vitro ADME; settings: in vitro mouse or human liver microsomes
Experimental: Ketanserin was selected as the reference compound. The specific method is as follows:
Prepare 0.1MK3PO4 (pH 7.4) buffer and 3×NADPH stock solution (6 mM, 5 mg/mL), and preheat in a 37° C. water bath; configure the test compound and control compound spiking solution: 5 μL compound stock solution ([…]) was added to 95 μL acetonitrile; Configuration of 1.5 μM spiking solution in microsomes (0.75 mg/mL): 1.5 μL of spiking solution and 18.75 μL of liver microparticles solution (20 mg/mL) were added to 479.75 μL of K3PO4 buffer; add 30 μL spiking solution in microsomes to the multi-well plate, and incubated at 37° C. for 5 minutes; add 15 μL NADPH stock solution to each well to start the reaction, and timing; the reaction was terminated by adding 150 μL of acetonitrile solution containing IS at 0 min, 5 min, 15 min, 30 min and 45 min, respectively; shake for 10 min and then centrifuge at 6000 rpm for 15 min; take 80 μL of the supernatant from each well for LC/MS detection and calculate T1/2.
Note: The mouse and human liver microsomes used in the experiments were purchased from Xenotech.

[4] = Mouse pharmacokinetics (PK) test; format: in vivo, ICR mice; settings: for AUC(0-inf) / clearance / Cmax / Vd / bioavailability / half-life: ICR, plasma; for clearance: read-out: Eliminate Cl; for Cmax: read-out: Peak blood concentration C max; for Vd: read-out: Steady state apparent volume of distribution Vss; for bioavailability: read-out: Bioavailability F; for half-life: read-out: Half-life t 1/2 (converted)
Experimental: (§1) Take experimental mice and apply an appropriate amount of the test compound to them according to the dosage and administration route shown in the figure. Three experimental mice were selected for three parallel experiments for each compound and each administration method. Numbers 101, 102 and 103 were in the same group, 201, 202 and 203 were in one group, and 301, 302 and 303 were in one group.
(§2) At the corresponding time point, take 10 μL of rat plasma sample into a centrifuge tube, add 100 μL of methanol:acetonitrile (1:1, v/v), perform […] for 1 min, centrifuged (14000 rpm) for 5 min, and take 50 μL of the supernatant, mixed with water in equal volumes, mixed uniformly by […] and then analyzed.
(§3) Note: The mice used in the PK experiment are ICR mice of SPF, purchased from Sino-British SIPPR Lab Animal Ltd, Shanghai, China. The rats used in the PK experiments were SD rats of SPF, purchased from Sino-British SIPPR Lab Animal Ltd, Shanghai, China.

[5] = Rat pharmacokinetics (PK) test; format: in vivo, SD rats; settings: for bioavailability: read-out: Bioavailability F; for half-life: read-out: Half-life t 1/2 (converted); for Cmax: read-out: Peak blood concentration C max
Experimental: as §1, §2, §3

[6] = IV intravenous injection, 1 mg/kg
[7] = SD, plasma, IP intraperitoneal injection (3 mg/kg)
[8] = SD, plasma, IV intravenous injection (1 mg/kg)
[9] = SD, plasma, PO oral gavage (10 mg/kg)
[10] = IP intraperitoneal injection, 3 mg/kg

PK properties in the mouse PK experiment (in words) [4] | AUC(0-inf) [4, 6] [ng·h/mL] | clearance [4, 6] [mL/min/kg] | Cmax [4, 6] [ng/mL] | Vd [4, 6] [L/kg] | AUC(0-inf) ([4]; PO oral gavage, 10 mg/kg) [ng·h/mL] | bioavailability ([4]; PO oral gavage, 10 mg/kg) [%] | Cmax ([4]; PO oral gavage, 10 mg/kg) [ng/mL] | SMILES | Plasma stability (half-life, FIG. 4) [1] | Ability to selectively induce autophagy in damaged mitochondria (FIG. 2) [2] | Liver microsomal stability (elimination half-life T 1/2, FIG. 3) [3] | The ability of selection to induce autophagy in damaged mitochondria [2] | half-life [4, 6] [h] | half-life ([4]; PO oral gavage, 10 mg/kg) [h] | also measured
rapidly cleared | 140 | 131 | 314 | 18.4 | 162 | 8.64 | 102 | O=C(O)CSc1cc(NS(=O)(=O)c2ccc(Br)cc2)c2ccccc2c1O [UMI-77, reference compound] | unstable in the plasma environment and will be rapidly eliminated | unable to selectively induce autophagy in damaged mitochondria | unstable in the liver microsomal environment and will be rapidly eliminated |  |  |  | 
good PK properties | 429 | 39.3 | 947 | 1.39 | 1050 | 24.1 | 495 | CN(c1cc([S+]([O-])CC(=O)O)c(O)c2ccccc12)S(=O)(=O)c1ccc(Br)cc1 (centres unmarked) [Compound I-2] | superior plasma stability | more likely to induce autophagy in damaged mitochondria | superior liver microsomal stability | ++ (moderate ability to selectively induce autophagy in damaged mitochondria (number of cells in which damaged mitophagy occurs/number of all cells in the range of 0.2 to 0.3)) | 0.98 | 1.37 | Induction of mitophagy in cells with undamaged mitochondria (FIG. 1) ([2]; cells treated with 0 μM CCCP): unable to induce autophagy in non-damaged mitochondria; Induction of mitophagy in cells with mitochondrial damage (FIG. 1) ([2]; cells with CCCP (10 μM) versus without CCCP): selectively induces autophagy in damaged mitochondria

SMILES | PK properties in the mouse PK experiment (in words) [4] | AUC(0-inf) [4, 6] [ng·h/mL] | clearance [4, 6] [mL/min/kg] | Cmax [4, 6] [ng/mL] | Vd [4, 6] [L/kg] | AUC(0-inf) ([4]; PO oral gavage, 10 mg/kg) [ng·h/mL] | bioavailability ([4]; PO oral gavage, 10 mg/kg) [%] | Cmax ([4]; PO oral gavage, 10 mg/kg) [ng/mL] | Plasma stability (half-life, FIG. 4) [1] | Ability to selectively induce autophagy in damaged mitochondria (FIG. 2) [2] | Liver microsomal stability (elimination half-life T 1/2, FIG. 3) [3] | The ability of selection to induce autophagy in damaged mitochondria [2] | half-life [4, 6] [h] | half-life ([4]; PO oral gavage, 10 mg/kg) [h] | also measured
O=C(O)C[S+]([O-])c1cc(NS(=O)(=O)c2ccc(Br)cc2)c2ccccc2c1O (centres unmarked) [Compound I-1] | good PK properties | 714 | 24.9 | 832 | 2.3 | 3800 | 60.4 | 1350 | superior plasma stability | more likely to induce autophagy in damaged mitochondria | superior liver microsomal stability | +++ (strong ability to selectively induce autophagy in damaged mitochondria (number of cells in which damaged mitophagy occurs/number of all cells >0.30)) | 1.25 | 1.96 | PK properties in the rat PK experiment (in words) [5]: good PK properties; AUC(0-inf) [5, 7]: 18300 ng·h/mL; bioavailability [5, 7]: 165%; half-life [5, 7]: 3.34 h; Cmax [5, 7]: 5440 ng/mL; AUC(0-inf) [5, 8]: 3720 ng·h/mL; clearance ([5]; SD, plasma, IV intravenous injection (1 mg/kg), read-out: Eliminate Cl): 4.91 mL/min/kg; half-life [5, 8]: 1.93 h; Cmax [5, 8]: 1900 ng/mL; Vd ([5]; SD, plasma, IV intravenous injection (1 mg/kg), read-out: Steady state apparent volume of distribution V ss): 0.63 L/kg; AUC(0-inf) [5, 9]: 6070 ng·h/mL; bioavailability [5, 9]: 16.3%; half-life [5, 9]: 0.96 h; Cmax [5, 9]: 1550 ng/mL; AUC(0-inf) [4, 10]: 4420 ng·h/mL; bioavailability [4, 10]: 247%; half-life [4, 10]: 0.79 h; Cmax [4, 10]: 3740 ng/mL
